Data published in PMC11062894, “Protein-based bandpass filters for controlling cellular signaling with chemical inputs” (Nature Chemical Biology, 2023).
Several values for one entry are separate records, joined by “and”; a condition that tells them apart may be missing. Equal entries are not always repeated.

Test system: GEMS receptors with CBPvene (Bcl2–LD3 and Bcl2high variants), STAT3-driven SEAP in HEK293T cells
Experiment: GEMS SEAP reporter assay, CBPvene (Bcl2high, LD3-v and Bcl2-v variants) with venetoclax
Format: cell-based
[1] = CBPVene-v4, Venetoclax 10000 nM
[2] = CBPVene-v4-Bcl2v2, Venetoclax 1 nM
[3] = CBPVene-v4-Bcl2v2, Venetoclax 3.16 nM
[4] = CBPVene-v4-Bcl2v2, Venetoclax 10 nM
[5] = CBPVene-v4-Bcl2v2, Venetoclax 31.6 nM
[6] = CBPVene-v4-Bcl2v2, Venetoclax 100 nM
[7] = CBPVene-v4-Bcl2v2, Venetoclax 316 nM
[8] = CBPVene-v4-Bcl2v2, Venetoclax 1000 nM
[9] = CBPVene-v4-Bcl2v2, Venetoclax 3160 nM
[10] = CBPVene-v4-Bcl2v2, Venetoclax 10000 nM
[11] = CBPVene-v4-LD3v1, Venetoclax 1 nM
[12] = CBPVene-v4-LD3v1, Venetoclax 3.16 nM

CC1(C)CCC(CN2CCN(c3ccc(C(=O)NS(=O)(=O)c4ccc(NCC5CCOCC5)c([N+](=O)[O-])c4)c(Oc4cnc5[nH]ccc5c4)c3)CC2)=C(c2ccc(Cl)cc2)C1 [Venetoclax]
Raw data of Independent repeat of CBPVene-v4 vs CBPVene-v4-LD3v1 (CBPVene-v4, Venetoclax 0.01 nM): 35.2999 and 34.8178 and 35.7656
Normalized data Figure 5c (CBPVene-v4, Venetoclax 1 nM): 4.2459 and 4.713 and 4.374
Normalized data Figure 5f (CBPVene-v4, Venetoclax 1 nM): 3.9625 and 4.391 and 3.175
Raw data Figure 5c (CBPVene-v4, Venetoclax 1 nM): 40.3634 and 39.0365 and 35.7348
Raw data Figure 5f (CBPVene-v4, Venetoclax 1 nM): 25.8055 and 26.2397 and 18.4029
Raw data of Independent repeat of CBPVene-v4 vs CBPVene-v4-LD3v1 (CBPVene-v4, Venetoclax 1 nM): 38.7674 and 35.097 and 34.871
Normalized data Figure 5c (CBPVene-v4, Venetoclax 3.16 nM): 3.941 and 4.809 and 4.361
Normalized data Figure 5f (CBPVene-v4, Venetoclax 3.16 nM): 3.622 and 4.227 and 3.164
Raw data Figure 5c (CBPVene-v4, Venetoclax 3.16 nM): 37.466 and 39.8351 and 35.629
Raw data Figure 5f (CBPVene-v4, Venetoclax 3.16 nM): 23.589 and 25.2624 and 18.3382
Raw data of Independent repeat of CBPVene-v4 vs CBPVene-v4-LD3v1 (CBPVene-v4, Venetoclax 3.16 nM): 37.9892 and 34.5814 and 35.8384
Normalized data Figure 5c (CBPVene-v4, Venetoclax 10 nM): 8.251 and 9.2534 and 8.61
Normalized data Figure 5f (CBPVene-v4, Venetoclax 10 nM): 5.138 and 5.367 and 4.508
Raw data Figure 5c (CBPVene-v4, Venetoclax 10 nM): 78.4344 and 76.6512 and 70.3479
Raw data Figure 5f (CBPVene-v4, Venetoclax 10 nM): 33.4586 and 32.0727 and 26.1315
Raw data of Independent repeat of CBPVene-v4 vs CBPVene-v4-LD3v1 (CBPVene-v4, Venetoclax 10 nM): 40.747 and 40.7067 and 37.4113
Normalized data Figure 5c (CBPVene-v4, Venetoclax 31.6 nM): 23.4087 and 23.5513 and 23.3621
Normalized data Figure 5f (CBPVene-v4, Venetoclax 31.6 nM): 15.4727 and 18.6639 and 9.968
Raw data Figure 5c (CBPVene-v4, Venetoclax 31.6 nM): 222.533 and 195.089 and 190.881
Raw data Figure 5f (CBPVene-v4, Venetoclax 31.6 nM): 100.765 and 111.541 and 57.7785
Raw data of Independent repeat of CBPVene-v4 vs CBPVene-v4-LD3v1 (CBPVene-v4, Venetoclax 31.6 nM): 75.7769 and 63.5945 and 72.9306
Normalized data Figure 5c (CBPVene-v4, Venetoclax 100 nM): 64.2766 and 73.1224 and 63.32
Normalized data Figure 5f (CBPVene-v4, Venetoclax 100 nM): 42.576 and 45.1446 and 47.2654
Raw data Figure 5c (CBPVene-v4, Venetoclax 100 nM): 611.042 and 605.715 and 517.36
Raw data Figure 5f (CBPVene-v4, Venetoclax 100 nM): 277.273 and 269.798 and 273.956
Raw data of Independent repeat of CBPVene-v4 vs CBPVene-v4-LD3v1 (CBPVene-v4, Venetoclax 100 nM): 129.31 and 117.373 and 126.839
Normalized data Figure 5c (CBPVene-v4, Venetoclax 316 nM): 100
Normalized data Figure 5f (CBPVene-v4, Venetoclax 316 nM): 68.7371 and 83.2998 and 76.2167
Raw data Figure 5c (CBPVene-v4, Venetoclax 316 nM): 950.644 and 828.357 and 817.055
Raw data Figure 5f (CBPVene-v4, Venetoclax 316 nM): 447.645 and 497.825 and 441.762
Raw data of Independent repeat of CBPVene-v4 vs CBPVene-v4-LD3v1 (CBPVene-v4, Venetoclax 316 nM): 169.324 and 158.179 and 180.661
Normalized data Figure 5c (CBPVene-v4, Venetoclax 1000 nM): 99.3535 and 99.2484 and 89.7215
Normalized data Figure 5f (CBPVene-v4, Venetoclax 1000 nM): 100
Raw data Figure 5c (CBPVene-v4, Venetoclax 1000 nM): 944.498 and 822.131 and 733.074
Raw data Figure 5f (CBPVene-v4, Venetoclax 1000 nM): 651.243 and 597.631 and 579.613
Raw data of Independent repeat of CBPVene-v4 vs CBPVene-v4-LD3v1 (CBPVene-v4, Venetoclax 1000 nM): 146.952 and 139.539 and 151.905
Normalized data Figure 5c (CBPVene-v4, Venetoclax 3160 nM): 79.357 and 89.4953 and 82.0208
Normalized data Figure 5f (CBPVene-v4, Venetoclax 3160 nM): 65.0047 and 75.3611 and 76.07
Raw data Figure 5c (CBPVene-v4, Venetoclax 3160 nM): 754.403 and 741.34 and 670.156
Raw data Figure 5f (CBPVene-v4, Venetoclax 3160 nM): 423.338 and 450.382 and 440.912
Raw data of Independent repeat of CBPVene-v4 vs CBPVene-v4-LD3v1 (CBPVene-v4, Venetoclax 3160 nM): 80.4284 and 77.0562 and 76.9119
Normalized data Figure 5c [1]: 37.7692 and 41.8946 and 33.9505
Normalized data Figure 5f [1]: 42.6019 and 46.7992 and 47.9312
Raw data Figure 5c [1]: 359.051 and 347.036 and 277.394
Raw data Figure 5f [1]: 277.442 and 279.687 and 277.816
Raw data of Independent repeat of CBPVene-v4 vs CBPVene-v4-LD3v1 [1]: 30.3195 and 25.7432 and 26.899
Normalized data Figure 5f [2]: 10.7266 and 9.876 and 10.4991
Raw data Figure 5f [2]: 31.1918 and 36.3952 and 31.7379
Normalized data Figure 5f [3]: 10.8133 and 9.981 and 9.46
Raw data Figure 5f [3]: 31.4437 and 36.7806 and 28.5959
Normalized data Figure 5f [4]: 12.5098 and 10.2311 and 12.3238
Raw data Figure 5f [4]: 36.377 and 37.7021 and 37.2539
Normalized data Figure 5f [5]: 23.9871 and 21.8452 and 18.9874
Raw data Figure 5f [5]: 69.7518 and 80.5008 and 57.3972
Normalized data Figure 5f [6]: 72.8611 and 61.7154 and 72.9933
Raw data Figure 5f [6]: 211.871 and 227.425 and 220.652
Normalized data Figure 5f [7]: 100
Raw data Figure 5f [7]: 290.788 and 368.506 and 302.291
Normalized data Figure 5f [8]: 80.3655 and 74.9934 and 84.5393
Raw data Figure 5f [8]: 233.694 and 276.355 and 255.555
Normalized data Figure 5f [9]: 44.2102 and 40.566 and 46.2986
Raw data Figure 5f [9]: 128.558 and 149.488 and 139.957
Normalized data Figure 5f [10]: 14.2742 and 12.3963 and 14.8986
Raw data Figure 5f [10]: 41.5078 and 45.6809 and 45.0373
Raw data of Independent repeat of CBPVene-v4 vs CBPVene-v4-LD3v1 (CBPVene-v4-LD3v1, Venetoclax 0.01 nM): 13.3313 and 13.792 and 13.1319
Normalized data Figure 5c [11]: 19.7956 and 13.458 and 12.3801
Raw data Figure 5c [11]: 19.1053 and 16.682 and 17.9097
Raw data of Independent repeat of CBPVene-v4 vs CBPVene-v4-LD3v1 [11]: 12.6379 and 12.8648 and 13.2123
Normalized data Figure 5c [12]: 17.4061 and 14.8696 and 11.4945
Raw data Figure 5c [12]: 16.7992 and 18.4317 and 16.6285
Raw data of Independent repeat of CBPVene-v4 vs CBPVene-v4-LD3v1 [12]: 10.9947 and 13.5809 and 10.4154
Normalized data Figure 5c (CBPVene-v4-LD3v1, Venetoclax 10 nM): 20.3471 and 18.6998 and 14.8112
